These compounds were tested against T1, 5-hydroxytryptamine receptor 1A (Rattus norvegicus, UniProt P19327) (assay: Displacement of [3H]8OH-DPAT from 5HT1A in rat brain cerebral cortex after 15 mins by scintillation counting).
T1 sequence (P19327 whole entry): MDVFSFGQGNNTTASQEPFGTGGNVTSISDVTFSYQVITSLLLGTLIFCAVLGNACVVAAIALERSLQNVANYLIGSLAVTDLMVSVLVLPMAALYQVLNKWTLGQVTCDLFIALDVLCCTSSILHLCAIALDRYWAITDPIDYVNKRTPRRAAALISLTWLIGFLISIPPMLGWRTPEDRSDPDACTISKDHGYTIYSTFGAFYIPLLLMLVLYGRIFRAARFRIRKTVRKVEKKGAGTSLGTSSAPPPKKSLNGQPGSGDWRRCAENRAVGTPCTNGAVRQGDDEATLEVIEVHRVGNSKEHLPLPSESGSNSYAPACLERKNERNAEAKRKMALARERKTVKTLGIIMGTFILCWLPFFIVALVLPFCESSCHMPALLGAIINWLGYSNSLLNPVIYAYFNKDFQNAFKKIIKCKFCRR
Type: tissue-based

Row | SMILES | Ki
1 | O=C(N[C@H]1CC2CC[C@H](C1)N2Cc1ccco1)c1ccc(Cl)cc1[N+](=O)[O-] (single isomer, unassigned) | 16 µM
2 | O=C(N[C@H]1CC2CC[C@H](C1)N2Cc1ccco1)c1cccc2ccccc12 (single isomer, unassigned) | 7.1 µM
3 | COc1cccc(C(=O)N[C@H]2CC3CC[C@H](C2)N3CC2CCCO2)c1 (single isomer, unassigned) | 10.3 µM
4 | COc1ccc(C(=O)N[C@H]2CC3CC[C@H](C2)N3Cc2ccco2)c(OC)c1 (single isomer, unassigned) | 19 µM
5 | COc1ccc(F)cc1C(=O)N[C@H]1CC2CC[C@H](C1)N2Cc1ccco1 (single isomer, unassigned) | 17.2 µM
6 | COc1cc(OC)cc(C(=O)N[C@H]2CC3CC[C@H](C2)N3Cc2ccco2)c1 (single isomer, unassigned) | 4.4 µM
7 | COc1ccc(C(=O)N[C@H]2CC3CC[C@H](C2)N3Cc2ccco2)cc1OC (single isomer, unassigned) | 57.3 µM
8 | COc1ccc(F)cc1C(=O)N[C@@H]1CC2CC[C@H](C1)N2CC1CCCO1 (single isomer, unassigned) | 10.1 µM
9 | O=C(N[C@@H]1CC2CC[C@H](C1)N2Cc1ccccc1)c1cccc2ccccc12 (single isomer, unassigned) | 0.532 µM
10 | COc1ccccc1C(=O)N[C@H]1CC2CC[C@H](C1)N2Cc1ccco1 (single isomer, unassigned) | 6.1 µM
11 | O=C(N[C@H]1CC2CC[C@H](C1)N2CC1CCCO1)c1ccccc1 (single isomer, unassigned) | 10.2 µM
12 | COc1cccc(C(=O)N[C@@H]2CC3CC[C@H](C2)N3Cc2ccccn2)c1OC (single isomer, unassigned) | 1.4 µM
13 | COc1cccc(C(=O)N[C@@H]2CC3CC[C@H](C2)N3Cc2cccnc2)c1OC (single isomer, unassigned) | 3.3 µM

The compounds below were run against D(2) dopamine receptor (Rattus norvegicus, UniProt P61169) (assay: Displacement of [3H]spiperone from dopamine D2 receptor in rat striatum tissue after 20 mins by scintillation counting).
Type: tissue-based

Sequence of D(2) dopamine receptor (P61169 whole entry): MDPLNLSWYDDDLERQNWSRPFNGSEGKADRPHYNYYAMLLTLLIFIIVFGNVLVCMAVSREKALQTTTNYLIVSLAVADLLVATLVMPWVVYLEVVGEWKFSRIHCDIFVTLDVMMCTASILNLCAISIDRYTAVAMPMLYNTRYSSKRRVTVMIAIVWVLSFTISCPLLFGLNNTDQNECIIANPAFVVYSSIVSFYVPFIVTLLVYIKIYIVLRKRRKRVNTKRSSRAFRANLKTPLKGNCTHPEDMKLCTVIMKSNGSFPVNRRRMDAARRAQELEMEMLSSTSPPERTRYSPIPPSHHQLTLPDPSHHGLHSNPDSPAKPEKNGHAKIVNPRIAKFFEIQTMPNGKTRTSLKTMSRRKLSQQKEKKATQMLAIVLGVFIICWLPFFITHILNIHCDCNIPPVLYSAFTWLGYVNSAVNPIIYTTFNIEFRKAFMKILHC

Row | SMILES | Ki
14 | O=C(N[C@H]1CC2CC[C@H](C1)N2Cc1ccco1)c1ccc(Cl)cc1[N+](=O)[O-] (single isomer, unassigned) | 19 µM
15 | O=C(N[C@H]1CC2CC[C@H](C1)N2Cc1ccco1)c1cccc2ccccc12 (single isomer, unassigned) | 66.7 µM
16 | COc1cccc(C(=O)N[C@H]2CC3CC[C@H](C2)N3CC2CCCO2)c1 (single isomer, unassigned) | > 100 µM
17 | COc1ccc(C(=O)N[C@H]2CC3CC[C@H](C2)N3Cc2ccco2)c(OC)c1 (single isomer, unassigned) | 0.652 µM
18 | COc1ccc(F)cc1C(=O)N[C@H]1CC2CC[C@H](C1)N2Cc1ccco1 (single isomer, unassigned) | 0.507 µM
19 | COc1cc(OC)cc(C(=O)N[C@H]2CC3CC[C@H](C2)N3Cc2ccco2)c1 (single isomer, unassigned) | 13.2 µM
20 | COc1ccc(C(=O)N[C@H]2CC3CC[C@H](C2)N3Cc2ccco2)cc1OC (single isomer, unassigned) | 68.8 µM
21 | COc1ccc(F)cc1C(=O)N[C@@H]1CC2CC[C@H](C1)N2CC1CCCO1 (single isomer, unassigned) | 12.4 µM
22 | O=C(N[C@@H]1CC2CC[C@H](C1)N2Cc1ccccc1)c1cccc2ccccc12 (single isomer, unassigned) | 2.9 µM
23 | COc1ccccc1C(=O)N[C@H]1CC2CC[C@H](C1)N2Cc1ccco1 (single isomer, unassigned) | 1 µM
24 | O=C(N[C@H]1CC2CC[C@H](C1)N2CC1CCCO1)c1ccccc1 (single isomer, unassigned) | > 100 µM
25 | COc1cccc(C(=O)N[C@@H]2CC3CC[C@H](C2)N3Cc2ccccn2)c1OC (single isomer, unassigned) | 0.0093 µM
26 | COc1cccc(C(=O)N[C@@H]2CC3CC[C@H](C2)N3Cc2cccnc2)c1OC (single isomer, unassigned) | 0.0115 µM

What follows are compounds tested against 5-hydroxytryptamine receptor 2A (Rattus norvegicus, UniProt P14842) (assay: Displacement of [3H]ketanserin from 5HT2A in rat brain cerebral cortex after 20 mins by scintillation counting).
Type: tissue-based

Sequence of 5-hydroxytryptamine receptor 2A (P14842 whole entry): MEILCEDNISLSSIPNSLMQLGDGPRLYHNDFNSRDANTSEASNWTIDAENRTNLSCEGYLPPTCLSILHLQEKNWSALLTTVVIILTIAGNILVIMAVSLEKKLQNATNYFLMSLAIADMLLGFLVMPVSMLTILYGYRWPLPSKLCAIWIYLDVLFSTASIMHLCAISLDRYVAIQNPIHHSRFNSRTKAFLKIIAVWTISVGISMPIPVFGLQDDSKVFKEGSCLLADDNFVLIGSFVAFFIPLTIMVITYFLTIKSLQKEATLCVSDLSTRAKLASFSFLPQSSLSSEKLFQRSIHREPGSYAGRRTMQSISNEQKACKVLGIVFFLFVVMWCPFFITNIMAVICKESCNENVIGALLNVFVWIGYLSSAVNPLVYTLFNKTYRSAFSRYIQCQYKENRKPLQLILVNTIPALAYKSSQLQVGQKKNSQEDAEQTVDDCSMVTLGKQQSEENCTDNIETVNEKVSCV

Row | SMILES | Ki
27 | O=C(N[C@H]1CC2CC[C@H](C1)N2Cc1ccco1)c1ccc(Cl)cc1[N+](=O)[O-] (single isomer, unassigned) | 32 µM
28 | O=C(N[C@H]1CC2CC[C@H](C1)N2Cc1ccco1)c1cccc2ccccc12 (single isomer, unassigned) | 2.3 µM
29 | COc1cccc(C(=O)N[C@H]2CC3CC[C@H](C2)N3CC2CCCO2)c1 (single isomer, unassigned) | 1.1 µM
30 | COc1ccc(C(=O)N[C@H]2CC3CC[C@H](C2)N3Cc2ccco2)c(OC)c1 (single isomer, unassigned) | 1.3 µM
31 | COc1ccc(F)cc1C(=O)N[C@H]1CC2CC[C@H](C1)N2Cc1ccco1 (single isomer, unassigned) | 1.4 µM
32 | COc1cc(OC)cc(C(=O)N[C@H]2CC3CC[C@H](C2)N3Cc2ccco2)c1 (single isomer, unassigned) | 0.929 µM
33 | COc1ccc(C(=O)N[C@H]2CC3CC[C@H](C2)N3Cc2ccco2)cc1OC (single isomer, unassigned) | 7.9 µM
34 | COc1ccc(F)cc1C(=O)N[C@@H]1CC2CC[C@H](C1)N2CC1CCCO1 (single isomer, unassigned) | 1.1 µM
35 | O=C(N[C@@H]1CC2CC[C@H](C1)N2Cc1ccccc1)c1cccc2ccccc12 (single isomer, unassigned) | 0.394 µM
36 | COc1ccccc1C(=O)N[C@H]1CC2CC[C@H](C1)N2Cc1ccco1 (single isomer, unassigned) | 6 µM
37 | O=C(N[C@H]1CC2CC[C@H](C1)N2CC1CCCO1)c1ccccc1 (single isomer, unassigned) | 3.1 µM
38 | COc1cccc(C(=O)N[C@@H]2CC3CC[C@H](C2)N3Cc2ccccn2)c1OC (single isomer, unassigned) | 1 µM
39 | COc1cccc(C(=O)N[C@@H]2CC3CC[C@H](C2)N3Cc2cccnc2)c1OC (single isomer, unassigned) | 0.956 µM

Source: ChEMBL document CHEMBL1833947, “Synthesis and biological investigation of potential atypical antipsychotics with a tropane core. Part 1” (Eur J Med Chem, 2011)
